Test results taken from US20260130395A1, “Water Dispersible Botanical Compositions” (Aquila Black Limited, priority 2021, published 2026).

Assay: Stability of cannabinoid compounds and Vitamin E components in Beverage 1 (AB White) by LCMSMS
Format: physicochemical
Conditions: for Stability of Plant-Derived Cannabinoid Compounds in AB White, 8° C.: AB White stored at 8° C.; for Stability of Plant-Derived Cannabinoid Compounds in AB White, 21-25° C.: AB White stored at 21-25° C.
Method: The stability of the plant-derived cannabinoid compounds and Vitamin E components of the beverage stored 8° C. and at room temperature (21-25° C.) were monitored, over a period of 570 days via Liquid Chromatography-tandem Mass Spectrometry [LCMSMS, Agilent 6590, C18, 3×50 mm, 2.7 m (Agilent InfinityLab Poroshell 120 EC-C18), Electrospray Ionization detector]. The LCMSMS was calibrated for 0-1000 ng/ml cannabinoids with the same resin material used in the preparation of the concentrates. At each time period, 100 ml of beverage was diluted with 10 ml of methanol and injected into the LCMSMS for analysis.

Structure (SMILES): CCCCCc1cc(O)c2c(c1)OC1(C)CCC3C1C2C3(C)C (stereo not drawn) [CBL, cannabicyclol]
- Stability of Plant-Derived Cannabinoid Compounds in AB White, 8° C. (29 days): 0.547 µg/mL
- Stability of Plant-Derived Cannabinoid Compounds in AB White, 8° C. (30 days): 0.544 µg/mL
- Stability of Plant-Derived Cannabinoid Compounds in AB White, 8° C. (60 days): 0.543 µg/mL
- Stability of Plant-Derived Cannabinoid Compounds in AB White, 8° C. (90 days): 0.527 µg/mL
- Stability of Plant-Derived Cannabinoid Compounds in AB White, 8° C. (120 days): 0.534 µg/mL
- Stability of Plant-Derived Cannabinoid Compounds in AB White, 8° C. (150 days): 0.540 µg/mL
- Stability of Plant-Derived Cannabinoid Compounds in AB White, 8° C. (180 days): 0.542 µg/mL
- Stability of Plant-Derived Cannabinoid Compounds in AB White, 8° C. (210 days): 0.534 µg/mL
- Stability of Plant-Derived Cannabinoid Compounds in AB White, 8° C. (240 days): 0.535 µg/mL
- Stability of Plant-Derived Cannabinoid Compounds in AB White, 8° C. (270 days): 0.539 µg/mL
- Stability of Plant-Derived Cannabinoid Compounds in AB White, 8° C. (300 days): 0.526 µg/mL
- Stability of Plant-Derived Cannabinoid Compounds in AB White, 8° C. (330 days): 0.543 µg/mL
- Stability of Plant-Derived Cannabinoid Compounds in AB White, 8° C. (360 days): 0.533 µg/mL
- Stability of Plant-Derived Cannabinoid Compounds in AB White, 8° C. (390 days): 0.535 µg/mL
- Stability of Plant-Derived Cannabinoid Compounds in AB White, 8° C. (420 days): 0.526 µg/mL
- Stability of Plant-Derived Cannabinoid Compounds in AB White, 8° C. (450 days): 0.532 µg/mL
- Stability of Plant-Derived Cannabinoid Compounds in AB White, 8° C. (480 days): 0.521 µg/mL
- Stability of Plant-Derived Cannabinoid Compounds in AB White, 8° C. (510 days): 0.514 µg/mL
- Stability of Plant-Derived Cannabinoid Compounds in AB White, 8° C. (540 days): 0.514 µg/mL
- Stability of Plant-Derived Cannabinoid Compounds in AB White, 8° C. (570 days): 0.503 µg/mL
- Stability of Plant-Derived Cannabinoid Compounds in AB White, 21-25° C. (0 days): 0.550 µg/mL
- Stability of Plant-Derived Cannabinoid Compounds in AB White, 21-25° C. (1 days): 0.539 µg/mL
- Stability of Plant-Derived Cannabinoid Compounds in AB White, 21-25° C. (2 days): 0.540 µg/mL
- Stability of Plant-Derived Cannabinoid Compounds in AB White, 21-25° C. (3 days): 0.543 µg/mL
- Stability of Plant-Derived Cannabinoid Compounds in AB White, 21-25° C. (5 days): 0.530 µg/mL
- Stability of Plant-Derived Cannabinoid Compounds in AB White, 21-25° C. (8 days): 0.542 µg/mL
- Stability of Plant-Derived Cannabinoid Compounds in AB White, 21-25° C. (9 days): 0.535 µg/mL
- Stability of Plant-Derived Cannabinoid Compounds in AB White, 21-25° C. (10 days): 0.546 µg/mL
- Stability of Plant-Derived Cannabinoid Compounds in AB White, 21-25° C. (11 days): 0.552 µg/mL
- Stability of Plant-Derived Cannabinoid Compounds in AB White, 21-25° C. (12 days): 0.529 µg/mL
- Stability of Plant-Derived Cannabinoid Compounds in AB White, 21-25° C. (15 days): 0.548 µg/mL
- Stability of Plant-Derived Cannabinoid Compounds in AB White, 21-25° C. (16 days): 0.537 µg/mL
- Stability of Plant-Derived Cannabinoid Compounds in AB White, 21-25° C. (17 days): 0.554 µg/mL
- Stability of Plant-Derived Cannabinoid Compounds in AB White, 21-25° C. (18 days): 0.554 µg/mL
- Stability of Plant-Derived Cannabinoid Compounds in AB White, 21-25° C. (19 days): 0.552 µg/mL
- Stability of Plant-Derived Cannabinoid Compounds in AB White, 21-25° C. (22 days): 0.547 µg/mL
- Stability of Plant-Derived Cannabinoid Compounds in AB White, 21-25° C. (23 days): 0.530 µg/mL
- Stability of Plant-Derived Cannabinoid Compounds in AB White, 21-25° C. (24 days): 0.546 µg/mL
- Stability of Plant-Derived Cannabinoid Compounds in AB White, 21-25° C. (25 days): 0.532 µg/mL
- Stability of Plant-Derived Cannabinoid Compounds in AB White, 21-25° C. (26 days): 0.549 µg/mL
- Stability of Plant-Derived Cannabinoid Compounds in AB White, 21-25° C. (29 days): 0.552 µg/mL
- Stability of Plant-Derived Cannabinoid Compounds in AB White, 21-25° C. (30 days): 0.543 µg/mL
- Stability of Plant-Derived Cannabinoid Compounds in AB White, 21-25° C. (60 days): 0.544 µg/mL
- Stability of Plant-Derived Cannabinoid Compounds in AB White, 21-25° C. (90 days): 0.541 µg/mL
- Stability of Plant-Derived Cannabinoid Compounds in AB White, 21-25° C. (120 days): 0.516 µg/mL
- Stability of Plant-Derived Cannabinoid Compounds in AB White, 21-25° C. (150 days): 0.517 µg/mL
- Stability of Plant-Derived Cannabinoid Compounds in AB White, 21-25° C. (180 days): 0.527 µg/mL
- Stability of Plant-Derived Cannabinoid Compounds in AB White, 21-25° C. (210 days): 0.514 µg/mL
- Stability of Plant-Derived Cannabinoid Compounds in AB White, 21-25° C. (240 days): 0.515 µg/mL
- Stability of Plant-Derived Cannabinoid Compounds in AB White, 21-25° C. (270 days): 0.535 µg/mL
- Stability of Plant-Derived Cannabinoid Compounds in AB White, 21-25° C. (300 days): 0.532 µg/mL
- Stability of Plant-Derived Cannabinoid Compounds in AB White, 21-25° C. (330 days): 0.526 µg/mL
- Stability of Plant-Derived Cannabinoid Compounds in AB White, 21-25° C. (360 days): 0.526 µg/mL
- Stability of Plant-Derived Cannabinoid Compounds in AB White, 21-25° C. (390 days): 0.518 µg/mL
- Stability of Plant-Derived Cannabinoid Compounds in AB White, 21-25° C. (420 days): 0.523 µg/mL
- Stability of Plant-Derived Cannabinoid Compounds in AB White, 21-25° C. (450 days): 0.521 µg/mL
- Stability of Plant-Derived Cannabinoid Compounds in AB White, 21-25° C. (480 days): 0.510 µg/mL
- Stability of Plant-Derived Cannabinoid Compounds in AB White, 21-25° C. (510 days): 0.503 µg/mL
- Stability of Plant-Derived Cannabinoid Compounds in AB White, 21-25° C. (540 days): 0.510 µg/mL
- Stability of Plant-Derived Cannabinoid Compounds in AB White, 21-25° C. (570 days): 0.505 µg/mL
